Source: US20220340597A1, “HEXAHYDRO-1H-PYRAZINO[1,2-A]PYRAZINE COMPOUNDS FOR THE TREATMENT OF AUTOIMMUNE DISEASE” (Hoffmann-La Roche Inc., priority 2019, published 2022)

What was measured:
human TLR9 = target: T1, human TLR9 (Homo sapiens, UniProt Q9NR96); experiment: HEK293-Blue-hTLR-9 cells assay; assay type: cell-based; conditions: HEK293-Blue-hTLR9 cells, ODN2006 stimulation, 20 hrs, SEAP reporter; read-out: HEK/hTLR9 IC50
T1 construct: host or cells: HEK293 (HEK-Blue hTLR9)
T1 sequence (Q9NR96 26-1032): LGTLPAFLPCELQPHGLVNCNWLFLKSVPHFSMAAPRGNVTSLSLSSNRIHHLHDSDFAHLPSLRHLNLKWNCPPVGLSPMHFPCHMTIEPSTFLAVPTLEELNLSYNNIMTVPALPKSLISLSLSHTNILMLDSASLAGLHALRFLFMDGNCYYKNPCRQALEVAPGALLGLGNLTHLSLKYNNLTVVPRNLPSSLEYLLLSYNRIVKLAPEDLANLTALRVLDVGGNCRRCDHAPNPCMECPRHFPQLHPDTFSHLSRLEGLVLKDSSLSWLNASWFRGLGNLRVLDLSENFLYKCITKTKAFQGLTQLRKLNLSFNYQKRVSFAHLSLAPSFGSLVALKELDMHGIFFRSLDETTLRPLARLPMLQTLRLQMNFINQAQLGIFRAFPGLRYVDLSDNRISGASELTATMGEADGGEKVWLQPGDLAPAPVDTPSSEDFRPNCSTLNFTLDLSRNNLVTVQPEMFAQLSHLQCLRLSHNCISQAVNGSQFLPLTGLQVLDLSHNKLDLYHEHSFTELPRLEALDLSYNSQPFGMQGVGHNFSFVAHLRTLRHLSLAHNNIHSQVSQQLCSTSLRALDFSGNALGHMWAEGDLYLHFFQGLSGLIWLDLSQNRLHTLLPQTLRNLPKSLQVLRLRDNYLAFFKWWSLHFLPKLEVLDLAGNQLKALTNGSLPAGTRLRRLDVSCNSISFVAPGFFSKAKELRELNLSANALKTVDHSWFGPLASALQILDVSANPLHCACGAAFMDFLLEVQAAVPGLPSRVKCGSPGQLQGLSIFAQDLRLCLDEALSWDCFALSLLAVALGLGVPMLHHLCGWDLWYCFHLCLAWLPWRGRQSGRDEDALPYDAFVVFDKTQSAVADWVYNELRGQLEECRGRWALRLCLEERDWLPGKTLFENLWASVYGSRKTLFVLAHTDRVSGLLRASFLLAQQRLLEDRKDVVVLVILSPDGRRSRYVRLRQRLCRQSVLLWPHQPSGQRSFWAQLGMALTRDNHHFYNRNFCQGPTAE

hERG channel = target: T2, hERG channel (Homo sapiens, UniProt Q12809); experiment: hERG channel inhibition assay (patch-clamp, CHOhERG cells); assay type: cell-based; conditions: for IC50 / IC20: CHOhERG cells, whole-cell patch-clamp; for IC20: human, CHO cells stably expressing hERG (CHOhERG); for hERG IC20/TLR7 IC50 / hERG IC20/TLR8 IC50 / hERG IC20/TLR9 IC50: safety ratio
T2 construct: expressed in transfected cells; host or cells: CHO (Chinese hamster ovary), CHOhERG
T2 sequence (Q12809 whole entry): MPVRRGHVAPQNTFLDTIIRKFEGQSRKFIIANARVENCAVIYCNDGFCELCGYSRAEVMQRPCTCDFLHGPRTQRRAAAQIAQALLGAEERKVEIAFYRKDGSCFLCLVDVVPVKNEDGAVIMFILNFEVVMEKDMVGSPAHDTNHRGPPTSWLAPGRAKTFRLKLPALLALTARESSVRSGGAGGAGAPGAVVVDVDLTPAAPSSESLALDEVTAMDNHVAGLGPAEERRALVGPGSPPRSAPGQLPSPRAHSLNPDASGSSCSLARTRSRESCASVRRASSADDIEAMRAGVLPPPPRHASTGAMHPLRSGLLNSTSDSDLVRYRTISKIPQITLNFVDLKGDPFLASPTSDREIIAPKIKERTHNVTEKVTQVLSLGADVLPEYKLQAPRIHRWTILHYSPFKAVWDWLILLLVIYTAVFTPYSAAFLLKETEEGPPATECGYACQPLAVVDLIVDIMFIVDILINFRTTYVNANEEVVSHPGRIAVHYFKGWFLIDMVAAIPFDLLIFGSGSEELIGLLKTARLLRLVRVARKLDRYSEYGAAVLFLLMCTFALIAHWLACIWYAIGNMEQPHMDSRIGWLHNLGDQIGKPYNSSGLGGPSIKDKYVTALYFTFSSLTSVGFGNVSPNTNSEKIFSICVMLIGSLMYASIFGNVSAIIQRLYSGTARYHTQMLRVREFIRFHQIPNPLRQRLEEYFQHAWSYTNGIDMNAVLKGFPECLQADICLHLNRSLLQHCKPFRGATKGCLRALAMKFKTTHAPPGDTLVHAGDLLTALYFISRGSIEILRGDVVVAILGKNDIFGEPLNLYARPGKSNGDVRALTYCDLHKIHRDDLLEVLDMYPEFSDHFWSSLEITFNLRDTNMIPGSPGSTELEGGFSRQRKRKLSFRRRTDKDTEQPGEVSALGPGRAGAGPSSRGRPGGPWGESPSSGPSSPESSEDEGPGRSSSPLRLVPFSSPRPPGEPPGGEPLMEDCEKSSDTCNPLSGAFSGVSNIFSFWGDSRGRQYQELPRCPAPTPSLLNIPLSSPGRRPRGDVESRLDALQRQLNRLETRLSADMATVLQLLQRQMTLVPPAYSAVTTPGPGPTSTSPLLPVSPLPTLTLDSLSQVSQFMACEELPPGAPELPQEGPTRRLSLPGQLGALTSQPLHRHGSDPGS
Procedure: hERG Channel Inhibition Assay:
The hERG K^+ channels were cloned in humans and stably expressed in a CHO (Chinese hamster ovary) cell line. CHOhERG cells were used for patch-clamp (voltage-clamp, whole-cell) experiments. Cells were stimulated by a voltage pattern to activate hERG channels and conduct IKhERG currents (rapid delayed outward rectifier potassium current of the hERG channel). After the cells were stabilized for a few minutes, the amplitude and kinetics of IKhERG were recorded at a stimulation frequency of 0.1 Hz (6 bpm). Thereafter, the test compound was added to the preparation at increasing concentrations. For each concentration, an attempt was made to reach a steady-state effect, usually, this was achieved within 3-10 min at which time the next highest concentration was applied. The amplitude and kinetics of IKhERG are recorded in each concentration of the drug which were compared to the control values (taken as 100%). (references: Redfern W S, Carlsson L, Davis A S, Lynch W G, MacKenzie I, Palethorpe S, Siegl P K, Strang I, Sullivan A T, Wallis R, Camm A J, Hammond T G. 2003; Relationships between preclinical cardiac electrophysiology, clinical QT interval prolongation and torsade de pointes for a broad range of drugs: evidence for a provisional safety margin in drug development. Cardiovasc. Res. 58:32-45, Sanguinetti M C, Tristani-Firouzi M. 2006; hERG potassium channels and cardiac arrhythmia. Nature 440:463-469, Webster R, Leishman D, Walker D. 2002; Towards a drug concentration effect relationship for QT prolongation and torsades de pointes. Curr. Opin. Drug Discov. Devel. 5:116-26).
The calculation of hERG IC20/TLR7/8/9 IC50 below serves as early selectivity index to assess hERG liability.

Structure (SMILES) | IC50 (human TLR9) [µM] | IC50 (hERG channel) [µM] | IC20 (hERG channel) [µM] | hERG IC20/TLR7 IC50 (hERG channel) | hERG IC20/TLR8 IC50 (hERG channel) | hERG IC20/TLR9 IC50 (hERG channel)
CO[C@@H]1CN(c2nc(C)cc(N3CCN4[C@@H](C3)CN(c3ccc(C#N)c5ncccc35)C[C@H]4C)n2)C[C@H]1N [Example 45, 5-[(4R,9aR)-8-[2-[(3R,4R)-3-amino-4-methoxy-pyrrolidin-1-yl]-6-methyl-pyrimidin-4-yl]-4-methyl-3,4,6,7,9,9a-hexahydro-1H-pyrazino[1,2-a]pyrazin-2-yl]quinoline-8-carbonitrile] | 0.081 | > 20 | > 10 | >556 | >357 | >124
Cc1cc(N2CCN3[C@@H](C2)CN(c2ccc(C#N)c4ncccc24)C[C@H]3C)nc(N2CC(C)(N)C2)n1 [Example 55, 5-[(4R,9aR)-8-[2-(3-amino-3-methyl-azetidin-1-yl)-6-methyl-pyrimidin-4-yl]-4-methyl-3,4,6,7,9,9a-hexahydro-1H-pyrazino[1,2-a]pyrazin-2-yl]quinoline-8-carbonitrile] | 0.048 | > 20 | > 10 | >680 | >249 | >209
C[C@@H]1CN(c2ccc(C#N)n3ncc(F)c23)C[C@@H]2CN(Cc3ccc4c(c3)CNCC4)CCN21 [Example 69, 4-[(4R,9aS)-4-methyl-8-(1,2,3,4-tetrahydroisoquinolin-7-ylmethyl)-3,4,6,7,9,9a-hexahydro-1H-pyrazino[1,2-a]pyrazin-2-yl]-3-fluoro-pyrazolo[1,5-a]pyridine-7-carbonitrile] | 0.142 | > 20 | > 10 | >152 | >192 | >70
[2H]c1ccc2c(N3C[C@@H]4CN(CCc5ccc(N6C[C@H]7NCCO[C@@H]7C6)nc5)CCN4[C@H](C)C3)ccc(C#N)c2n1 [Example 77, 5-[(4R,9aS)-8-[2-[6-[(4aR,7aR)-3,4,4a,5,7,7a-hexahydro-2H-pyrrolo[3,4-b][1,4]oxazin-6-yl]-3-pyridyl]ethyl]-4-methyl-3,4,6,7,9,9a-hexahydro-1H-pyrazino[1,2-a]pyrazin-2-yl]-2-deuterio-quinoline-8-carbonitrile] | 0.044 | > 20 | > 10 | >476 | >416 | >227
[2H]c1ccc2c(N3C[C@@H]4CN(Cc5ccc(N6CC(C)(N)C6)nc5C)CCN4[C@H](C)C3)ccc(C#N)c2n1 [Example 79, 5-[(4R,9aS)-8-[[6-(3-amino-3-methyl-azetidin-1-yl)-2-methyl-3-pyridyl]methyl]-4-methyl-3,4,6,7,9,9a-hexahydro-1H-pyrazino[1,2-a]pyrazin-2-yl]-2-deuterio-quinoline-8-carbonitrile] | 0.046 | > 20 | > 10 | >526 | >1666 | >217
[2H]c1ccc2c(N3C[C@@H]4CN(c5ccc([C@@H]6CNCCO6)cc5)CCN4[C@@H](C)C3)ccc(C#N)c2n1 [Example 106, 5-[(4S,9aS)-4-methyl-8-[4-[(2R)-morpholin-2-yl]phenyl]-3,4,6,7,9,9a-hexahydro-1H-pyrazino[1,2-a]pyrazin-2-yl]-2-deuterio-quinoline-8-carbonitrile] | 0.128 | > 20 | > 10 | >5000 | >2500 | >78
[2H]c1ccc2c(N3C[C@@H]4CN(c5ccc(N6CC7CCC(C6)N7)nc5)CCN4[C@@H](C)C3)ccc(C#N)c2n1 [Example 112, 5-[(4S,9aR)-8-[6-(3,8-diazabicyclo[3.2.1]octan-3-yl)-3-pyridyl]-4-methyl-3,4,6,7,9,9a-hexahydro-1H-pyrazino[1,2-a]pyrazin-2-yl]-2-deuterio-quinoline-8-carbonitrile] | 0.082 | > 20 | > 10 | >2500 | >1000 | >122

Continued, in another order:

IC50 (human TLR9) [µM] | Structure (SMILES) | IC50 (hERG channel) [µM] | IC20 (hERG channel) [µM] | hERG IC20/TLR7 IC50 (hERG channel) | hERG IC20/TLR8 IC50 (hERG channel) | hERG IC20/TLR9 IC50 (hERG channel)
0.111 | [2H]c1ccc2c(N3C[C@@H]4CN(c5ccc(CCN6C[C@H](OC)[C@@H](N)C6)cn5)CCN4[C@H](C)C3)ccc(C#N)c2n1 [Example 109, 5-[(4R,9aR)-8-[5-[2-[(3S,4S)-3-amino-4-methoxy-pyrrolidin-1-yl]ethyl]-2-pyridyl]-4-methyl-3,4,6,7,9,9a-hexahydro-1H-pyrazino[1,2-a]pyrazin-2-yl]-2-deuterio-quinoline-8-carbonitrile] | > 20 | > 10 | >2000 | >2500 | >90
0.119 | [2H]c1ccc2c(N3C[C@@H]4CN(c5ncc(N6C[C@@H]7C[C@H]6CN7)cc5C)CCN4[C@@H](C)C3)ccc(C#N)c2n1 [Example 111, 5-[(4S,9aR)-8-[5-[(1S,4S)-2,5-diazabicyclo[2.2.1]heptan-2-yl]-3-methyl-2-pyridyl]-4-methyl-3,4,6,7,9,9a-hexahydro-1H-pyrazino[1,2-a]pyrazin-2-yl]-2-deuterio-quinoline-8-carbonitrile] | > 20 | > 10 | >1666 | >2000 | >84
0.126 | Cc1cc(N2CC3(CN(C)C3)C2)cnc1N1CCN2[C@@H](C1)CN(c1cc(=O)n(C)c3ncccc13)C[C@@H]2C [Example 113, 4-[(4S,9aR)-4-methyl-8-[3-methyl-5-(6-methyl-2,6-diazaspiro[3.3]heptan-2-yl)-2-pyridyl]-3,4,6,7,9,9a-hexahydro-1H-pyrazino[1,2-a]pyrazin-2-yl]-1-methyl-1,8-naphthyridin-2-one] | > 20 | > 10 | >1666 | >70 | >79
0.14 | [2H]c1ccc2c(N3C[C@@H]4CN(c5ccc(N6C[C@@H](N)[C@H](OC)C6)nc5)CCN4[C@@H](C)C3)ccc(C#N)c2n1 [Example 115, 5-[(4S,9aR)-8-[6-[(3R,4R)-3-amino-4-methoxy-pyrrolidin-1-yl]-3-pyridyl]-4-methyl-3,4,6,7,9,9a-hexahydro-1H-pyrazino[1,2-a]pyrazin-2-yl]-2-deuterio-quinoline-8-carbonitrile] | > 20 | > 10 | >1000 | >588 | >71
0.148 | [2H]c1ccc2c(N3C[C@@H]4CN(c5ncc(N6CC(C)(N)C6)cc5C)CCN4[C@@H](C)C3)ccc(C#N)c2n1 [Example 118, 5-[(4S,9aR)-8-[5-(3-amino-3-methyl-azetidin-1-yl)-3-methyl-2-pyridyl]-4-methyl-3,4,6,7,9,9a-hexahydro-1H-pyrazino[1,2-a]pyrazin-2-yl]-2-deuterio-quinoline-8-carbonitrile] | > 20 | 7.66 | 1914 | 1276 | 51
